The source of these data is PubChem BioAssay (NCI).

Each structure is given as a SMILES string.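 Method: 48-hour compound exposure of cells in 96-well plates, five concentrations, linear interpolation of endpoints. TGI denotes the concentration required for complete inhibition of growth.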 Some results are limits rather than exact numbers.

Among the test systems are EKVX NSCLC; HCC-2998 colon; HCT-116 colon; K-562 leukemia; LOX IMVI melanoma; MALME-3M melanoma; NCI-H460 lung; OVCAR-3 ovarian; SF-539 CNS; SK-MEL-2 melanoma; SK-MEL-5 melanoma; SK-OV-3 ovarian; SN12C renal; SNB-75 CNS; CAKI-1 renal; A498 renal; MCF7 breast; MDA-MB-435; PC-3 prostate; BT-549 breast.
Assay in all cases: NCI tumour cell line growth inhibition, 48 h

For `CC(=O)NC1=C(NCC(C)(C)C)C(=O)c2ccccc2C1=O`, the TGI in the test on EKVX NSCLC, in the test with HCC-2998 colon, in the test on HCT-116 colon, with K-562 leukemia, in the test with LOX IMVI melanoma and with MALME-3M melanoma was more than 100 µM each time. Further, the TGI in the test with NCI-H460 lung, in the test with OVCAR-3 ovarian, with SF-539 CNS, with SK-MEL-2 melanoma, in the test on SK-MEL-5 melanoma and with SK-OV-3 ovarian was more than 100 µM each time. Also, the TGI in the test on SN12C renal and with SNB-75 CNS was more than 100 µM in each case.
In the case of `CC1(C)CCc2ccc(OCCC(=O)O)cc2O1`, the TGI in the test with CAKI-1 renal, in the test on EKVX NSCLC, in the test on HCT-116 colon, with K-562 leukemia, in the test on LOX IMVI melanoma and in the test on MALME-3M melanoma was more than 100 µM each time. The TGI in the test with NCI-H460 lung, in the test with OVCAR-3 ovarian, in the test with SF-539 CNS, in the test with SK-MEL-2 melanoma, in the test on SK-MEL-5 melanoma and in the test on SK-OV-3 ovarian was more than 100 µM each time. Further, the TGI with SN12C renal and with SNB-75 CNS was more than 100 µM in each case.
Consider `O=C(CSC(=S)N1CCCCC1)Nc1nc2c(s1)CCCC2`, for which the TGI in the test with A498 renal was more than 100 µM; in the test with HCC-2998 colon, more than 100 µM; in the test on HCT-116 colon, 32.2 µM; in the test with LOX IMVI melanoma it was 40.6 µM; in the test with MALME-3M melanoma, more than 100 µM; with NCI-H460 lung it was more than 100 µM. The TGI is more than 100 µM in the test on SF-539 CNS; more than 100 µM in the test with SK-MEL-2 melanoma; 32.9 µM in the test with SK-MEL-5 melanoma; more than 100 µM in the test with SK-OV-3 ovarian; more than 100 µM with SN12C renal; more than 100 µM in the test with SNB-75 CNS.
In the case of `COc1cc(-c2ccc(Br)[nH]2)[nH]c1C=NCC(C)C`, the TGI was determined as 7.16 µM in the test with A498 renal; 7.64 µM with CAKI-1 renal; 2.03 µM with EKVX NSCLC; 4.67 µM in the test with HCC-2998 colon; 2.86 µM with HCT-116 colon; 14.2 µM in the test on K-562 leukemia. Besides, the TGI in the test on MALME-3M melanoma is 3.13 µM; in the test on MCF7 breast it was 2.47 µM; with MDA-MB-435, 4.54 µM; with NCI-H460 lung, 7.92 µM; in the test with OVCAR-3 ovarian it was 3.79 µM; in the test with PC-3 prostate it was 4.39 µM. Further, the TGI was 5.84 µM in the test on SF-539 CNS; 3.07 µM in the test on SK-MEL-2 melanoma; 2.87 µM in the test with SK-MEL-5 melanoma; 6.91 µM in the test on SK-OV-3 ovarian; 7.51 µM with SN12C renal; 9.45 µM with SNB-75 CNS.
On to `Cn1c(=O)c2c3ccccc3n(C)c2n(C)c1=O`, for which the TGI in the test with A498 renal, in the test with BT-549 breast, in the test with CAKI-1 renal, in the test on EKVX NSCLC, with HCC-2998 colon and with HCT-116 colon was more than 100 µM throughout. The TGI in the test on K-562 leukemia, with LOX IMVI melanoma, in the test on MALME-3M melanoma, in the test with MCF7 breast, in the test on MDA-MB-435 and in the test with OVCAR-3 ovarian was more than 100 µM each time. The TGI with SF-539 CNS is more than 100 µM; in the test on SK-MEL-2 melanoma, more than 100 µM; with SK-MEL-5 melanoma, more than 100 µM; in the test with SK-OV-3 ovarian, 83.9 µM; with SN12C renal it was more than 100 µM; in the test on SNB-75 CNS, more than 100 µM.
For the molecule `C[n+]1c2ccccc2c(NCC(=O)O)c2ccccc21`, the TGI in the test on A498 renal, with CAKI-1 renal, in the test on EKVX NSCLC, in the test with HCC-2998 colon, with HCT-116 colon and in the test on K-562 leukemia was more than 100 µM each time. For the same molecule, the TGI with MALME-3M melanoma, in the test on NCI-H460 lung, in the test with OVCAR-3 ovarian, in the test with SF-539 CNS, with SK-MEL-2 melanoma and in the test on SK-MEL-5 melanoma was more than 100 µM each time. Further, the TGI in the test on SK-OV-3 ovarian, in the test with SN12C renal and with SNB-75 CNS was more than 100 µM each time.
For `Cc1ccc(Nc2nc(=O)c3c4ccccc4n(C(=O)OC(C)(C)C)c3s2)cc1`, the TGI in the test with A498 renal was more than 100 µM; in the test on BT-549 breast, 56.5 µM; in the test with CAKI-1 renal, 66 µM; in the test on EKVX NSCLC it was more than 100 µM; in the test on K-562 leukemia it was more than 100 µM; with LOX IMVI melanoma it was 46.7 µM. Moreover, the TGI with MALME-3M melanoma was 66.3 µM; in the test on MDA-MB-435 it was 38.1 µM; in the test on NCI-H460 lung, 43.1 µM; in the test with OVCAR-3 ovarian it was 55.7 µM; in the test with PC-3 prostate, more than 100 µM; with SF-539 CNS it was 79.8 µM. Further, the TGI with SK-MEL-2 melanoma is 59.2 µM; in the test on SK-MEL-5 melanoma it was 27 µM; with SK-OV-3 ovarian, more than 100 µM; with SNB-75 CNS, more than 100 µM.
`Cc1c2n(c(=O)[nH]c1=O)C1OC(CO)C(O2)C1N=[N+]=[N-]` (stereo not given): the TGI in the test on A498 renal, in the test on CAKI-1 renal, in the test on EKVX NSCLC, in the test on HCT-116 colon, in the test with K-562 leukemia and in the test with LOX IMVI melanoma was more than 100 µM each time. The TGI with NCI-H460 lung, with OVCAR-3 ovarian, in the test on SF-539 CNS, in the test on SK-MEL-2 melanoma, in the test with SK-MEL-5 melanoma and in the test with SK-OV-3 ovarian was more than 100 µM in each case. The TGI with SN12C renal and in the test on SNB-75 CNS was more than 100 µM throughout.
For `COc1cc2c(c(OC)c1O)-c1ccc(SC)c(=O)cc1C(NC(C)=O)CC2` (stereo not given), the TGI is 30.9 µM in the test with A498 renal; more than 100 µM with CAKI-1 renal; more than 100 µM with EKVX NSCLC; more than 100 µM in the test on HCC-2998 colon; 0.252 µM with HCT-116 colon; more than 100 µM in the test on K-562 leukemia. For the same molecule, the TGI in the test with LOX IMVI melanoma is more than 100 µM; with MALME-3M melanoma it was more than 100 µM; in the test with NCI-H460 lung, more than 11 µM; with OVCAR-3 ovarian, 0.0142 µM; with SK-MEL-2 melanoma, more than 5.54 µM; in the test with SK-MEL-5 melanoma, 0.0361 µM. For the same molecule, the TGI in the test with SK-OV-3 ovarian and with SN12C renal was more than 100 µM throughout.
